Measurements reported in the supplement of paper PMC10307832.

Legend:
Assay in all cases: relative viability (nuclei count vs DMSO), 5 days (fraction); higher = more cells survive
[1] = system: NCI-H2342
Summary of the method: (§1)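 Medians of duplicate plates are given as relative viability. That measure is the nuclei count in treated wells divided by the count in vehicle wells. Counts were taken on 4× images of lung cancer cell lines in 1536-well plates, 5 days after pin-tool dosing the day after seeding with one drug alone or a fixed anchor-drug dose plus five library-drug doses (not always all listed) in √10 steps.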

[2] = system: COR-L23
Summary of the method: as §1

[3] = system: NCI-H661
Summary of the method: as §1

[4] = system: NCI-H1651
Summary of the method: as §1

[5] = system: LXF-289
Summary of the method: as §1

[6] = system: NCI-H1915
Summary of the method: as §1

[7] = system: NCI-H520
Summary of the method: as §1

[8] = system: ABC-1
Summary of the method: as §1

[9] = system: NCI-H2347
Summary of the method: as §1

[10] = system: COR-L 105
Summary of the method: as §1

[11] = system: LCLC-97TM1
Summary of the method: as §1

[12] = system: NCI-H460
Summary of the method: as §1

[13] = system: CAL-12T
Summary of the method: as §1

[14] = system: HOP-62
Summary of the method: as §1

[15] = system: NCI-H838
Summary of the method: as §1

[16] = system: NCI-H1993
Summary of the method: as §1

[17] = system: NCI-H441
Summary of the method: as §1

[18] = system: NCI-H522
Summary of the method: as §1

[19] = system: NCI-H1437
Summary of the method: as §1

[20] = system: NCI-H2023
Summary of the method: as §1

[21] = system: NCI-H2009
Summary of the method: as §1

[22] = system: PC-3 [JPC-3]
Summary of the method: as §1

[23] = system: A-427
Summary of the method: as §1

C=C1C(=O)O[C@@H](CCCCCCCC)[C@@H]1C(=O)O [C-75] + O=C(CCCCCCC(=O)Nc1ccccc1)NO [Vorinostat] (partner 1 µM)
relative viability ([1]; first compound 0.08 µM): 0.695 | relative viability ([1]; first compound 0.253 µM): 0.728 | relative viability ([1]; first compound 0.8 µM): 0.71 | relative viability ([1]; first compound 2.53 µM): 0.727 | relative viability ([1]; first compound 8 µM): 0.736 | relative viability ([2]; first compound 0.08 µM): 0.507 | relative viability ([2]; first compound 0.253 µM): 0.408 | relative viability ([2]; first compound 0.8 µM): 0.446 | relative viability ([2]; first compound 2.53 µM): 0.37 | relative viability ([2]; first compound 8 µM): 0.327 | relative viability ([3]; first compound 0.08 µM): 0.762 | relative viability ([3]; first compound 0.253 µM): 0.828 | relative viability ([3]; first compound 0.8 µM): 0.741 | relative viability ([3]; first compound 2.53 µM): 0.657 | relative viability ([3]; first compound 8 µM): 0.774 | relative viability ([4]; first compound 0.08 µM): 0.55 | relative viability ([4]; first compound 0.253 µM): 0.58 | relative viability ([4]; first compound 0.8 µM): 0.525 | relative viability ([4]; first compound 2.53 µM): 0.522 | relative viability ([4]; first compound 8 µM): 0.509 | relative viability ([5]; first compound 0.08 µM): 0.716 | relative viability ([5]; first compound 0.253 µM): 0.927 | relative viability ([5]; first compound 0.8 µM): 0.742 | relative viability ([5]; first compound 2.53 µM): 0.781 | relative viability ([5]; first compound 8 µM): 0.749 | relative viability ([6]; first compound 0.08 µM): 0.506 | relative viability ([6]; first compound 0.253 µM): 0.548 | relative viability ([6]; first compound 0.8 µM): 0.526 | relative viability ([6]; first compound 2.53 µM): 0.475 | relative viability ([6]; first compound 8 µM): 0.536 | relative viability ([7]; first compound 0.08 µM): 0.647 | relative viability ([7]; first compound 0.253 µM): 0.716 | relative viability ([7]; first compound 0.8 µM): 0.637 | relative viability ([7]; first compound 2.53 µM): 0.577 | relative viability ([7]; first compound 8 µM): 0.592 | relative viability ([8]; first compound 0.08 µM): 1.32 | relative viability ([8]; first compound 0.253 µM): 1.18 | relative viability ([8]; first compound 0.8 µM): 0.547 | relative viability ([8]; first compound 2.53 µM): 0.805 | relative viability ([8]; first compound 8 µM): 0.649 | relative viability ([9]; first compound 0.08 µM): 0.567 | relative viability ([9]; first compound 0.253 µM): 0.842 | relative viability ([9]; first compound 0.8 µM): 0.614 | relative viability ([9]; first compound 2.53 µM): 0.535 | relative viability ([9]; first compound 8 µM): 0.615 | relative viability ([10]; first compound 0.08 µM): 0.906 | relative viability ([10]; first compound 0.253 µM): 0.826 | relative viability ([10]; first compound 0.8 µM): 0.895 | relative viability ([10]; first compound 2.53 µM): 0.859 | relative viability ([10]; first compound 8 µM): 0.813 | relative viability ([11]; first compound 0.08 µM): 0.864 | relative viability ([11]; first compound 0.253 µM): 0.817 | relative viability ([11]; first compound 0.8 µM): 0.49 | relative viability ([11]; first compound 2.53 µM): 0.413 | relative viability ([11]; first compound 8 µM): 0.455 | relative viability ([12]; first compound 0.08 µM): 0.698 | relative viability ([12]; first compound 0.253 µM): 0.882 | relative viability ([12]; first compound 0.8 µM): 0.688 | relative viability ([12]; first compound 2.53 µM): 0.58 | relative viability ([12]; first compound 8 µM): 0.674 | relative viability ([13]; first compound 0.08 µM): 0.721 | relative viability ([13]; first compound 0.253 µM): 1.12 | relative viability ([13]; first compound 0.8 µM): 0.918 | relative viability ([13]; first compound 2.53 µM): 0.674 | relative viability ([13]; first compound 8 µM): 0.89 | relative viability ([14]; first compound 0.08 µM): 0.563 | relative viability ([14]; first compound 0.253 µM): 0.834 | relative viability ([14]; first compound 0.8 µM): 0.629 | relative viability ([14]; first compound 2.53 µM): 0.478 | relative viability ([14]; first compound 8 µM): 0.449 | relative viability ([15]; first compound 0.08 µM): 0.761 | relative viability ([15]; first compound 0.253 µM): 0.669 | relative viability ([15]; first compound 0.8 µM): 0.726 | relative viability ([15]; first compound 2.53 µM): 0.648 | relative viability ([15]; first compound 8 µM): 0.663 | relative viability ([16]; first compound 0.08 µM): 0.719 | relative viability ([16]; first compound 0.253 µM): 0.842 | relative viability ([16]; first compound 0.8 µM): 0.616 | relative viability ([16]; first compound 2.53 µM): 0.715 | relative viability ([16]; first compound 8 µM): 0.657 | relative viability ([17]; first compound 0.08 µM): 0.82 | relative viability ([17]; first compound 0.253 µM): 0.885 | relative viability ([17]; first compound 0.8 µM): 0.764 | relative viability ([17]; first compound 8 µM): 0.568 | relative viability ([18]; first compound 0.08 µM): 0.912 | relative viability ([18]; first compound 0.253 µM): 0.811 | relative viability ([18]; first compound 0.8 µM): 0.905 | relative viability ([18]; first compound 2.53 µM): 0.655 | relative viability ([18]; first compound 8 µM): 0.868 | relative viability ([19]; first compound 0.08 µM): 0.866 | relative viability ([19]; first compound 0.253 µM): 0.98 | relative viability ([19]; first compound 0.8 µM): 0.733 | relative viability ([19]; first compound 8 µM): 0.717 | relative viability ([20]; first compound 0.08 µM): 0.653 | relative viability ([20]; first compound 0.253 µM): 0.944 | relative viability ([20]; first compound 0.8 µM): 0.604 | relative viability ([20]; first compound 2.53 µM): 0.6 | relative viability ([20]; first compound 8 µM): 0.37 | relative viability ([21]; first compound 0.08 µM): 0.764 | relative viability ([21]; first compound 0.253 µM): 0.668 | relative viability ([21]; first compound 0.8 µM): 0.469 | relative viability ([21]; first compound 2.53 µM): 0.783 | relative viability ([21]; first compound 8 µM): 0.715 | relative viability ([22]; first compound 0.08 µM): 0.837 | relative viability ([22]; first compound 0.253 µM): 0.819 | relative viability ([22]; first compound 0.8 µM): 0.415 | relative viability ([22]; first compound 2.53 µM): 0.583 | relative viability ([22]; first compound 8 µM): 0.764 | relative viability ([23]; first compound 0.08 µM): 0.851 | relative viability ([23]; first compound 0.253 µM): 0.822 | relative viability ([23]; first compound 0.8 µM): 0.615 | relative viability ([23]; first compound 2.53 µM): 0.755 | relative viability ([23]; first compound 8 µM): 0.852
